Our source for the Maximum life span values is publication PMC7782499, “Progerinin, an optimized progerin-lamin A binding inhibitor, ameliorates premature senescence phenotypes of Hutchinson-Gilford progeria syndrome” (Communications Biology, 2021).

The test system of the assay is Lmna G609G/G609G mouse. The assay is described as follows: Life span of Lmna G609G/G609G progeria model mice. In kind it is in vivo. Conditions: i.p. 20 mg/kg twice a week from 5 weeks old. The text has this: Fig. 3 In vivo favorable effect of SLC-D011. A Gross morphology of Lmna^G609G/G609G mice (10 weeks old) was ameliorated after injection with SLC-D011. At the same age, the experimental group (D011) of mice were larger than vehicle-injected control (Con) subjects regardless of gender. B, C SLC-D011 increases body weight B and extends life span C of Lmna^G609G/G609G progeria model mouse (Con: n = 8; SLC-D011: n = 8). Compared with 14.8 weeks of average (ave) life span with maximum (max) life span of 15.5 weeks, 20 mg/kg of intraperitoneal (i.p) injection (twice a week) of SLC-D011 could extend the life span upto 19 weeks (max = 21 weeks). Lmna^G609G/G609G mice were injected with SLC-D011 from age of 5-week old, *p < 0.05. D Gross morphology of SLC-D011 injected Lmna^G609G/+ mouse. […] E SLC-D011 increases body weights of Lmna^G609G/+ mice (Con: n = 10; SLC-D011: n = 11), *p < 0.05. F Favorable effect of SLC-D011 on life span of Lmna^G609G/+ mice. […] Only the axis reads Age (weeks).
Fig. 4 Oral administration of SLC-D011 suppresses premature aging features. […] H Anti-aging effects of single treatment of SLC-D011 or lonafarnib were measured in HGPS patients-derived cells (AG11513, AG03199, AG11498, and AG03198, Coriell Cell Repositories). […]

Regarding `CC1(C)Oc2cc3oc(=O)ccc3cc2C[C@@H]1OC/C=C/c1ccccc1` [SLC-D011], the Maximum life span worked out at 21 weeks.
